Assay results as given in US11241434B2, “Compositions and methods for improving cognition in a subject” (Yale University, priority 2013, dated 2022).

Legend:
[1] = test system: APPswe/PS1ΔE9 transgenic mice; assay: Morris water maze in AD transgenic mice
Protocol: Spatial learning is plotted as latency to find a hidden platform in a Morris water maze at age 11-12 months. […] Mean±SEM for the indicated numbers of mice per genotype/treatment group.
Memory performance during a 60 sec probe trial, 24 hr after learning, where time spent in the target quadrant was measured. Random chance is 15 sec. Mean±SEM for n=9-14 in each group.
The dosing was on a twice a day schedule by oral gavage and control groups received vehicle. The identity of the active versus vehicle groups and the transgene status was unknown to the researchers handling the mice and collecting the behavioral data. […] The data from the two cohorts were pooled. Different tests were performed at 1-3 weeks (early) or 4-6 weeks (late) time points. Mice were tested in the Morris water maze at both ages, and also in Novel Object Recognition tests at the later time points. After memory testing was complete, the animals were sacrificed without ceasing their drug regimen for histological analysis.
After the learning trials, the mice were tested the subsequent day in a memory test, the 60 second probe trial with the hidden platform removed (FIG. 4). Random chance results in 15 sec occupancy in each quadrant.

[2] = test system: mice with closed head injury (CHI) and chronic variable stress (CVS); assay: Immunohistochemistry of cerebral cortex after head injury plus stress; assay type: in vivo, mouse; settings: subacute TBI/Stress mice
Source text: FIGS. 16A-16F illustrate the finding that AZD0530 treatment prevents phospho-Tau accumulation after head injury plus stress. […] Boxed area is shown at higher magnification inset. Scale bar, m. FIG. 16B: PHF-1 IHC quantification using ImageJ software measuring total stained area, yielded significant differences amongst the three groups. Data are mean±SEM. n=5/group, each dot is one mouse. One way ANOVA: F(2,12)=9.967, p=0.0028, Tukey's multiple comparison test: SV vs IV: p=0.0077, IV vs IA: p=0.0046. […] Scale bar, 20 μm. […] Data are mean±SEM. n=5/group, each dot is one mouse. […] Scale bar, 20 μm. […] Data are mean±SEM. n=5/group, each dot is one mouse.
Immunohistochemistry was performed as previously described (Kaufman et al., 2015, Ann Neurol 77:953-971) with slight modifications. Forty m coronal sections of the right hemisphere were cut with a Leica VT1000S Vibratome. Antigen retrieval was performed on the forty m free-floating sections by incubating three slices from each mouse in 1× Reveal decloaker buffer (Biocare Medical) in 24-well-plates for 10 minutes at 90° C. in an oven and then cooled down at room temperature for 10 minutes. The antigen retrieval step was done for PHF1, AT8, and GFAP stainings. Sections were permeabilized with 0.1% Triton X-100 at room temperature for 5 minutes for PHF1 and SV2A staining and for 30 minutes for CD68/Ibal, AT8, and GFAP. All sections were blocked with 10% donkey, horse, or goat serum in PBS for one hour at room temperature. The sections were then incubated in primary antibody in 4% donkey, horse, or goat serum in PBS overnight at room temperature. For SV2A and PHF1 stainings, primary antibodies were incubated at 4° C. rather than room temperature. […]
For imaging and analysis of sections from the transgenic Tauopathy studies, Nikon Eclipse Ti Spinning Disc Confocal Microscope was used with a 40×1.3 NA oil-immersion lens in Cargille immersion oil. […] The dentate gyrus, CA1, and CA3 of mice were imaged and the percent positive area for each staining was analyzed with a macro in ImageJ or a pipeline in CellProfiler. […]

solid tumors = settings: single agent, specific oncological indications; cited from earlier work

CN1CCN(CCOc2cc(OC3CCOCC3)c3c(Nc4c(Cl)ccc5c4OCO5)ncnc3c2)CC1 [saracatinib, N-(5-chloro-benzo[d][1,3]dioxol-4-yl)-7-(2-(4-methylpiperazin-1-yl)ethoxy)-5-(tetrahydro-2H-pyran-4-yloxy)quinazolin-4-amine]
latency to hidden platform (learning trials) ([1]; APPswe/PS1ΔE9 mice, 5 mg/kg/d b.i.d. oral gavage, 4-5 weeks): eliminated the transgenic deficit | probe trial, preference for target quadrant ([1]; APPswe/PS1ΔE9 mice, 5 mg/kg/d, 5 weeks): same strong preference for the target quadrant as did WT mice | learning and memory tests ([1]; shorter treatment duration or lesser doses): did not have significant effects | probe trial, time in target quadrant ([1]; wild type mice with or without 5 weeks saracatinib, 60 second trial, chance 15 sec): ~30 s | latency to hidden platform (learning trials) ([1]; wild type mice, 5 mg/kg/d): not altered | PHF-1 immunoreactivity area in cerebral cortex ([2]; 0.5-1.0 mm medial to injury site): dramatically reduced | GFAP IHC % area ([2]; three groups): did not result in groups differences | total Tau IHC mean intensity ([2]; three groups): did not show significant differences | benefit in Phase II studies (solid tumors): limited benefit
